Data as given in patent US12637687B2, “Nucleic acid molecules, polypeptides having epoxy group-removing catalytic activity and use thereof” (SHANDONG AGRICULTURAL UNIVERSITY, priority 2020, dated 2026).

Legend:
Conditions in all cases: in vivo
ThFhb7 = system: ThFhb7; set-up: species or system Thinopyrum ponticum
F. graminearum [1] = system: F. graminearum
F. graminearum [2] = system: F. graminearum; remark: listed apart in the source
F. graminearum [3] = system: F. graminearum; remark: listed apart in the source

Molecule: CC(=O)O[C@@H]1C[C@]2(C)[C@@]3(CO)[C@H](O)C(=O)C(C)=C[C@H]3O[C@H]1[C@@]21CO1 [3-ADON, 3-acetyl-deoxynivalenol]
- conversion into glutathione adducts in transgenic wheat overexpressing ThFhb7 (ThFhb7): efficiently catalyzed into glutathione adducts

Molecule: CC(=O)OC[C@]12[C@H](O)C(=O)C(C)=C[C@H]1O[C@@H]1[C@H](O)C[C@@]2(C)[C@]12CO2 [15-ADON, 15-acetyl-deoxynivalenol]
- conversion into glutathione adducts in transgenic wheat overexpressing ThFhb7 (ThFhb7): efficiently catalyzed into glutathione adducts

Molecule: CC1=C[C@H]2O[C@@H]3[C@H](O)C[C@](C)([C@@]2(CO)[C@H](O)C1=O)[C@]31CO1 [DON, deoxynivalenol]
- conversion into glutathione adducts in transgenic wheat overexpressing ThFhb7 (ThFhb7): efficiently catalyzed into glutathione adducts

Molecule: CC1=C[C@H]2O[C@@H]3[C@H](O)[C@@H](O)[C@](C)([C@@]2(CO)[C@H](O)C1=O)[C@]31CO1 [NIV, nivalenol]
- conversion into glutathione adducts in transgenic wheat overexpressing ThFhb7 (ThFhb7): efficiently catalyzed into glutathione adducts

B1: ThFhb7: de-epoxidase from Thinopyrum ponticum; polypeptide having epoxy group-removing catalytic activity, amino acid sequence SEQ ID NO: 36, gene SEQ ID NO: 1 (protein, listed as Elytrigia ponticum)
chain: MATSASTSTPIIPTAIAGAPPVAGTCCAVAPTLSALALAPLAVPTTTTTVLMPAISSVAASLAVPACALPAAGSAPATLPIIHAPATASLVGASPAIAATLGATTPASGAGALPPPGLLATAVGAAMPGLLIPLSGIAASPGLAATAAPASAVAAAPTAHVGLMVHGLPLAPATAAVTLAGPVAAAGLSSTAALGMVGGAAALMMGSLAAMLGALAALPALAASGPPLLGGAATTAAMIVGGTLAMMAATLPVSGTGGAAACHGAIPGGLHAALALTAGVL
- disease spot area of ex-vivo leaves vs receptor material (F. graminearum [1]): significantly reduced
- number of diseased spikelets vs control receptor material (F. graminearum [2]): significantly less
- diseased spot area on leaves vs KN199 (F. graminearum [3]): significantly reduced
